Test results as given in patent publication US8202871B2, “Indol-2-one derivatives disubstituted in the 3-position, preparation thereof and therapeutic use thereof” (Sanofi-Aventis, priority 2007, dated 2012).

Columns and labels:
[1] = biological target: T1, ghrelin receptor (Rattus norvegicus, UniProt O08725); assay: Antagonism of ghrelin on electric-field-stimulated contractions of isolated rat gastric fundus strips (headed 'In Vivo Test'); conditions: ghrelin 0.1 nM-1 μM concentration-response curves with and without antagonist, contact time 30 minutes, read-out: antagonist activity towards the ghrelin receptor, IC50
T1 construct: Strips of approximately 1 cm (5 mm wide) of gastric fundus were cut out along the longitudinal axis; from tissue; host or cells: rat gastric fundus strips
T1 sequence (O08725 whole entry): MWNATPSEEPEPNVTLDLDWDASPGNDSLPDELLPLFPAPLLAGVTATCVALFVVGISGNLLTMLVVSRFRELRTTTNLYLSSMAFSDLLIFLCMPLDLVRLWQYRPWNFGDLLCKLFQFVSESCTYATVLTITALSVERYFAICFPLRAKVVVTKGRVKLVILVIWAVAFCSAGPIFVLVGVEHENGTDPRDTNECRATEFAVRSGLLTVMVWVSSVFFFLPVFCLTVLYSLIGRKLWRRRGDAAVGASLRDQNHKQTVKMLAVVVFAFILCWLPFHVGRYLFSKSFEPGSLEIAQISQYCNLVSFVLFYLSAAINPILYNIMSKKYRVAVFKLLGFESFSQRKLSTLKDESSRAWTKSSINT
Procedure: The compounds according to the invention underwent in vivo studies.
Male Crl CD BR rats (Charles River, Italy) weighing 150-175 g were housed in a chamber at regulated temperature (22±1° C.) and humidity (55±10%) and with a 12-hour lightness-darkness cycle, for at least 7 days before their use. Feed and water were available ad libitum. The feed was removed 18 hours before sacrificing the animals. The rats were sacrificed by cervical dislocation, and the stomach was removed surgically, opened along the shorter curvature and placed in a Krebs solution (of composition (mM): 118.4 NaCl; 4.7 KCl; 2.5 CaCl2; 3.7 NaH2PO4; 1.2 MgSO4; 25 NaHCO3; 5.6 glucose). The animals were cared for and sacrificed according to the Sanofi-Aventis international code of ethics and the international principles governing the care and treatment of laboratory animals (EEC Directive 86/609, DJL358, 1, 12 Dec. 1987). […] The contractions were recorded by computer with a data recording and analysis system (Power Lab, Chart 5) connected to isotonic transducers (Ugo Basile, Varese, Italy) via preamplifiers (Octal Bridge Amp). […] The pKb values for the antagonists were calculated according to the Cheng-Prusoff equation (Kenakin et al., Competitive Antagonism, Pharmacologic Analysis of Drug-Receptor Interaction, 3rd edition, 331-373, Philadelphia, New York; Raven: Lippincott, 1997).

Compound: CN1CCN(CC(=O)NC2(c3ccc(Cl)cc3)C(=O)Nc3cc(Cl)c(Cl)cc32)CC1 (single isomer, unassigned; (+)) [Compound 1, (+)-N-[5,6-Dichloro-3-(4-chlorophenyl)-2-oxo-2,3-dihydro-1H-indol-3-yl]-2-(4-methylpiperazin-1-yl)acetamide]
- IC50 [1]: 50 nM
- melting point: 207.1 to 207.6 °C

Compound: CCN1CCC(CC(=O)NC2(c3ccc(C(F)(F)F)cc3)C(=O)Nc3cc(Cl)cc(Cl)c32)CC1 (single isomer, unassigned; (+)) [Compound 2, (+)-N-[4,6-Dichloro-3-(4-trifluoromethylphenyl)-2-oxo-2,3-dihydro-1H-indol-3-yl]-2-(1-ethylpiperid-4-yl)acetamide]
- IC50 [1]: 1 nM
- melting point: 158 to 162 °C
